Target: Protein kinase C (PKC)
Assay: Inhibition of protein kinase C
Format: protein assay, Rattus norvegicus

Structure (SMILES)	IC50 [M]
O=Cc1csc(-c2ccc(-c3ccc(CO)s3)s2)c1	0.00003
O=Cc1csc(-c2cccs2)c1	0.0005
OCc1csc(-c2cccs2)c1	> 0.001
O=Cc1ccc(-c2ccc(-c3cc(CO)cs3)s2)s1	3e-07
O=Cc1ccsc1	> 0.004
OCc1csc(-c2ccc(-c3ccc(CO)s3)s2)c1	0.0003
OCc1csc(-c2ccc(CO)s2)c1	> 0.001
O=Cc1csc(-c2ccc(-c3cccs3)s2)c1	5e-06
O=Cc1csc(-c2ccc(-c3ccc(C=O)s3)s2)c1	7e-07
O=Cc1csc(-c2ccc(C=O)s2)c1	0.001
OCc1csc(-c2ccc(-c3cccs3)s2)c1	3e-06
OCc1ccsc1	> 0.004
CN1CCN(CCCN2c3ccccc3Sc3ccc(C(F)(F)F)cc32)CC1 [TRIFLUOPERAZINE]	0.0005
